Source: patent publication US20220348590A1, “CYCLOOXYGENASE-2 INHIBITORS AND USES THEREOF” (The Board Institute, Inc., priority 2019, published 2022)
Like-named read-outs stand apart in the source and are kept apart here.

What was measured:
ovine COX-1 (oCOX-1) = molecular target: T1, ovine COX-1 (oCOX-1) (Ovis aries, UniProt P05979); experiment: LCMS-based COX-1 enzymatic inhibition assay (PGE2 quantification); format: biochemical
T1 construct: purchased Cayman Chemicals (Ann Arbor, Mich.)
T1 sequence (P05979 25-600): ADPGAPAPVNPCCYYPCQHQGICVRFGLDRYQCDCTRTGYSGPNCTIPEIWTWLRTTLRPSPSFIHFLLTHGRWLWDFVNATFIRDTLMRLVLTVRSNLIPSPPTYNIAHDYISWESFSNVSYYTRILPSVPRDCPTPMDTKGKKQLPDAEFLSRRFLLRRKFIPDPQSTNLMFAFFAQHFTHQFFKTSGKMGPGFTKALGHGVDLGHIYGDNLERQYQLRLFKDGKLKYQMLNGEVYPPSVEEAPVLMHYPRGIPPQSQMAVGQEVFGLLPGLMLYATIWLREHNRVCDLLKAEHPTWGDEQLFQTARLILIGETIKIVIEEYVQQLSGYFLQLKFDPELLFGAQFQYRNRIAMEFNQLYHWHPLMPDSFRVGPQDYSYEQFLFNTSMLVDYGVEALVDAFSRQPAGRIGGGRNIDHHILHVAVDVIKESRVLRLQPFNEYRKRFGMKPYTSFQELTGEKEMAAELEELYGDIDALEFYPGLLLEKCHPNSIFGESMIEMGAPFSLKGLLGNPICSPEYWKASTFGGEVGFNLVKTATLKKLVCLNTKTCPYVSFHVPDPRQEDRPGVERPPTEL
Description: We have adapted a previously reported cyclooxygenase enzymatic assay utilizing LCMS quantification of PGE2 as the product of COX-1 and COX2 catalyzed conversion of arachidonic acid to evaluate the binding properties of newly synthesized ligands [Cao, 2011]. These optimized and miniaturized (384-well plates) LCMS-based COX-1 and COX2 enzymatic assays enabled us to quickly evaluate newly synthesized ligands for COX2 binding affinity and selectivity vs COX-1. Using a shorter ligand-enzyme incubation time in the LCMS assay (2 minutes vs 10 minutes) also permitted us to prioritize ligands with faster binding kinetics. Considering the relatively slow on-rate kinetics of known coxibs, due to their 3-step binding mechanism [Marnett, 2009], we believe that optimizing this critical parameter will be key to the successful development of a COX2 PET tracer. Using these enzymatic assays, we have evaluated>200 newly synthesized ligands against COX2 and >20 ligands against COX-1. Another critical property necessary for a good PET radiotracer is to have low non-specific binding (NSB) to increase the free fraction and maximize the signal to noise ratio. This property can be evaluated using in-vitro protein binding assays, and we have now evaluated>50 newly synthesized ligands in mouse, rat and human plasma protein binding (PPB) assays as well as >15 ligands in a mouse brain protein binding (BPB) assay.
Ovine COX-1 (oCOX-1), ovine COX2 (oCOX2), human recombinant COX2 (hCOX2), arachidonic acid, PGE2, d4-PGD2, and […] (labeled with deuterium atoms at positions 3 and 4) were purchased from Cayman Chemicals (Ann Arbor, Mich.). The cofactors (−)epinephrine and hematin, and the COX inhibitors indomethacin, resveratrol and diclofenac were purchased from Sigma-Aldrich (St. Louis, Mo.). Celecoxib was purchased from 3B PharmaChem International (Wuhan, China). All organic solvents were HPLC grade or better and were purchased from Thermo Fisher (Hanover Park, Ill.). Formic acid was purchased from EMD Chemicals (San Diego, Calif.). Purified water was prepared by using a Millipore Milli-Q purification system (Millipore, Billerica, Mass.). All other chemicals and solvents were ACS reagent grade, unless stated otherwise.
In an Eppendorf tube, 146 μL of 100 mM Tris.HCl (pH 8.0) buffer, 2 μL of 100 μM hematin (co-factor) and 10 μL of 40 mM L-epinephrine (co-factor) were mixed at room temperature. Next, 20 μL of Tris.HCl (pH 8.0) buffer containing 0.2 μg COX2 or 0.1 μg COX-1 (approximately 1 unit of enzyme; 1 unit COX utilizes 1 nmol 02/mg/min at 37° C.) was added, and the solution was incubated at room temperature for 2 min. A 2 μL aliquot of the COX inhibitor in DMSO was added to the enzyme solution and preincubated at 37° C. for 10 min. Negative controls were identical except that 2 μL aliquots of DMSO without inhibitor were used instead.
Each COX reaction was initiated by adding 20 μL of arachidonic acid in Tris.HCl (pH 8.0) buffer to give a final concentration of 5 μM; and the reaction was terminated after 2 min by adding 20 μL of 2.0 M HCl. The surrogate standards d4-PGE2 and d4-PGD2 (10 μL aliquot of 50 ng/mL solution in methanol) were added to correct for errors or degradation during sample handling and for variation in injection volume or instrument response during LC-MS-MS. After 30 min, PGE2, PGD2 and their surrogate standards were extracted from each incubation mixture using 800 μL hexane/ethyl acetate (50:50, v/v). The organic phase was removed, evaporated to dryness, and reconstituted in 100 μL methanol/water (50:50, v/v) for analysis using LC-MS-MS.
The concentration of PGE2 in each sample was measured using LC-MS-MS, and the percent of COX inhibition by each test solution was determined by comparing the amount of PGE2 produced in the experiment with that produced in the negative control incubation. The formation of PGD2 was measured for quality control purposes, since the levels of PGD2 should be proportional to those of PGE2. […]

[1] = molecular target: T2, human recombinant COX2 (hCOX2) (UniProt P35354); experiment: LCMS-based COX2 enzymatic inhibition assay (PGE2 quantification); format: biochemical; parameters: COX2 2 minutes pge2/pge2d4 area ratio Avg; other: 2 minutes; readout pge2/pge2d4 area ratio; average; COX2 2 minutes pge2/pge2d4 area ratio Avg; LLE; average LLE; COX2 2 minutes pge2 area (counts) Avg; readout pge2 area (counts); other: 2 min; "ovine COX2 (oCOX2), human recombinant COX2 (hCOX2)"; settings: 2 minutes; for COX2 2 minutes pge2/pge2d4 area ratio Avg. LLE / COX2 2 minutes pge2 area (counts) Avg. LLE: average LLE; for IC50: average
T2 sequence (P35354 1-604): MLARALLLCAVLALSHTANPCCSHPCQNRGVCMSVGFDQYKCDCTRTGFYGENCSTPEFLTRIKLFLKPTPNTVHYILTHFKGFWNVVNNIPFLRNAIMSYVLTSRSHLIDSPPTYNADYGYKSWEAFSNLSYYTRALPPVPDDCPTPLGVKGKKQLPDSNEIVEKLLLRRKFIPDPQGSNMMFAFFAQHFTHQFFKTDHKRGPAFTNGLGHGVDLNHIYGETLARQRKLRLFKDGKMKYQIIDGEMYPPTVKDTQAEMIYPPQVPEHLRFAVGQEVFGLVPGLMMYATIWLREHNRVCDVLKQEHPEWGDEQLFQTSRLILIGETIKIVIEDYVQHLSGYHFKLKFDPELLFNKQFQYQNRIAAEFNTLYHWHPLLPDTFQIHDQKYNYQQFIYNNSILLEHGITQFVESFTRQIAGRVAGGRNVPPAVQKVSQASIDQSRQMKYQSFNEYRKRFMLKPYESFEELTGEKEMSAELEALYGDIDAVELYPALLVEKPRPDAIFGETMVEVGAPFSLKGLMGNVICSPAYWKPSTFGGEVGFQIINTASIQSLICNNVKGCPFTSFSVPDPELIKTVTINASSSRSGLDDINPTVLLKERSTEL
Procedure, shortened: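 Ovine COX-1 (0.1 μg) or human recombinant COX2 (0.2 μg) in 100 mM Tris.HCl pH 8.0 with hematin and epinephrine, preincubated with inhibitor 10 min at 37 °C. Reaction with 5 μM arachidonic acid stopped after 2 min with HCl; PGE2 quantified by LC-MS-MS. IC50 from 12 concentrations in triplicate.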

[2] = 10 minutes, pge2/pge2d4 area ratio, head of this section not shown, inferred
[3] = 10 minutes, pge2 area (counts), head of this section not shown, inferred
[4] = 10 minutes, pge2 area (counts), head of this section not shown, inferred, read-out: COX1 10 minutes pge2 area (counts) Avg. IC50
[5] = 10 minutes, readout pge2/pge2d4 area ratio, average, read-out: COX1 10 minutes pge2/pge2d4 area ratio Avg. IC50
[6] = readout pge2/pge2d4 area ratio, read-out: COX2 2 minutes pge2/pge2d4 area ratio Avg. IC50
[7] = readout pge2 area (counts), read-out: COX2 2 minutes pge2 area (counts) Avg. IC50
[8] = 10 minutes, readout pge2/pge2d4 area ratio, average LLE
[9] = 10 minutes, readout pge2 area (counts), average LLE
[10] = 10 minutes, readout pge2 area (counts), average, read-out: COX1 10 minutes pge2 area (counts) Avg. IC50

| Compound | COX1 10 minutes pge2/pge2d4 area ratio Avg. LLE (ovine COX-1 (oCOX-1); [2]) | COX1 10 minutes pge2 area (counts) Avg. LLE (ovine COX-1 (oCOX-1); [3]) | IC50 (ovine COX-1 (oCOX-1); [4]) [nM] | IC50 (ovine COX-1 (oCOX-1); [5]) [nM] | COX2 2 minutes pge2/pge2d4 area ratio Avg. LLE ([1]; readout pge2/pge2d4 area ratio) | IC50 [1, 6] [nM] | COX2 2 minutes pge2 area (counts) Avg. LLE ([1]; readout pge2 area (counts)) | IC50 [1, 7] [nM] | IC50 (ovine COX-1 (oCOX-1)) [nM] | COX1 10 minutes pge2/pge2d4 area ratio Avg. LLE (ovine COX-1 (oCOX-1); [8]) | COX1 10 minutes pge2 area (counts) Avg. LLE (ovine COX-1 (oCOX-1); [9]) | IC50 (ovine COX-1 (oCOX-1); [10]) [nM] |
| --- | --- | --- | --- | --- | --- | --- | --- | --- | --- | --- | --- | --- |
| CS(=O)(=O)c1ccc(-c2cnc3ccn(Cc4ccco4)c3n2)cc1 [Compound 82] | 1.865 | 1.853 | 17600 | 17200 | 4.353 | 57.3 | 4.328 | 63.3 |  |  |  |  |
| CS(=O)(=O)c1ccc(-c2coc3ccc(NCc4cccs4)nc23)cc1 [Compound 39] |  |  |  |  |  | 18.6 |  | 18.4 | 52000 |  |  |  |
| CS(=O)(=O)c1ccc(-c2cc3ccoc3c(NCc3cccs3)n2)cc1 [Compound 67] | 0.3787 | 0.343 | 21200 | 19600 | 3.0886 | 38.9 | 3.016 | 45.2 |  |  |  |  |
| Cc1ccoc1CNc1cccc(-c2ccc(S(C)(=O)=O)cc2)n1 [Compound 91] | 1.267 | 1.134 |  | 38300 | 4.034 | 68.6 | 4.0886 | 65.3 |  |  |  |  |
| Cc1ncc(-c2ccc(S(C)(=O)=O)cc2)nc1OCc1cccs1 [Compound 38] |  |  |  | 699 | 5.142 | 18.4 | 5.088 | 20.6 |  | 3.526 | 3.306 | 1230 |
| CS(=O)(=O)c1ccc(-c2cccc(NCc3cccs3)c2)cc1 [Compound 42] |  |  |  | 36200 | 3.551 | 19.5 | 3.78 | 6.71 |  | 0.01187 | −0.01745 | 38700 |
| CS(=O)(=O)c1ccc(-c2cccc(OCc3ccc(F)s3)n2)cc1 [Compound 30] |  |  |  | 42800 | 3.668 | 15 | 3.685 | 12.2 |  | 0.1181 | 0.2149 | 34300 |
